pKi: −log10 of the molar value.

The text below walks through data of patent US20030095958A1, “Inhibitors of bace” (priority 2001, published 2003).

Chain of BACE (P56817 46-501): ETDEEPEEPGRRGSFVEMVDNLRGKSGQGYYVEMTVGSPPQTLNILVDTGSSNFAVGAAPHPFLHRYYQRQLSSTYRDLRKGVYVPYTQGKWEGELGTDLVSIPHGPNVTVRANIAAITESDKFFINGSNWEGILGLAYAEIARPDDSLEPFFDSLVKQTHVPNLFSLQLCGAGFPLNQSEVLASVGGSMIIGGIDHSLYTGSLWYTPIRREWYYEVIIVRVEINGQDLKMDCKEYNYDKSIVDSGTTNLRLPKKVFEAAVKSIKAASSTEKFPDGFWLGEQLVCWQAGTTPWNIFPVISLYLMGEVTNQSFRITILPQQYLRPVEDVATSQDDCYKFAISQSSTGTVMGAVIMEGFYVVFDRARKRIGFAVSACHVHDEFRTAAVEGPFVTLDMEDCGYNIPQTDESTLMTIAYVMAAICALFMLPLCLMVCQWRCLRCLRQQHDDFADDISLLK

The experiment addresses BACE (Homo sapiens, UniProt P56817). Kind of experiment: Ki Determination for the Inhibition of BACE (FS-1 peptide fluorescence cleavage assay). The class given is biochemical. The settings on record: apparent Ki; 50 nM BACE, 10 μM FS-1 substrate, 0.1M sodium acetate pH 4.5. The procedure, abridged:
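Apparent Ki values derive from fitting fluorescence progress data (355 nm excitation, 495 nm emission) of FS-1 peptide cleavage to an integrated competitive tight-binding model. Reactions held 50 nM BACE, 10 μM substrate and inhibitor in 2% DMSO, pH 4.5 acetate buffer, with a 15 min enzyme-compound preincubation at room temperature.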
By pKi is commonly meant the Ki on a negative log10 scale, so that one unit is a factor of ten. As for `C1=C(c2cc(COc3ccc4ccccc4c3)c(-c3ccccc3)cc2COc2ccc3ccccc3c2)CCNC1` [Compound 307, 4-[2,5-Bis-(naphthalen-2-yloxymethyl)-biphenyl-4-yl]-1,2,3,6-tetrahydro-pyridine], the pKi is greater than 5.52. Consider `O=C(Nc1ccc2ccccc2c1)c1ccc(COc2ccccc2C(F)(F)F)cc1C1=CCNCC1` [Compound 308, N-Naphthalen-2-yl-2-{1,2,3,6-tetrahydro-pyridin-4-yl)-4-(2-trifluoromethyl-phenoxymethyl)-benzamide], for which the negative-log Ki (pKi) was 4.52 to 5.52.

For `COc1cc(NC(=O)c2ccc(COc3ccccc3C(F)(F)F)cc2C2=CCNCC2)cc2ccccc12` [Compound 309, N-(4-Methoxy-naphthalen-2-yl)-2-(1,2,3,6-tetrahydro-pyridin-4-yl)-4-(2-trifluoromethyl-phenoxyraethyl)-benzamide], the pKi was 4.52 to 5.52. The result for `Nc1cccc2c(NC(=O)c3ccc(COc4ccccc4C(F)(F)F)cc3C3=CCNCC3)cccc12` [Compound 310, N-(5-Amino-naphthalen-1-yl)-2-(1,2,3,6-tetrahydro-pyridin-4-yl)-4-(2-trifluoromethyl-phenoxymethyl)-benzamide] reads 4.52 to 5.52. The result for `Nc1cc2ccccc2cc1NC(=O)c1ccc(COc2ccccc2C(F)(F)F)cc1C1=CCNCC1` [Compound 311, N-(3-Amino-naphthalen-2-yl)-2-(1,2,3,6-tetrahydro-pyridin-4-yl)-4-(2-trifluoromethyl-phenoxymethyl)-benzamide] reads 4.52 to 5.52. With `O=C(OCc1ccc(COc2ccccc2C(F)(F)F)cc1C1=CCNCC1)c1cccc2ccccc12` [Compound 312, Naphthalene-1-carboxylic acid 2-(1,2,3,6-tetrahydro-pyridin-4-yl)-4-(2-trifluoromethyl-phenoxymethyl)-benzyl ester] the figure was greater than 5.52. As for `O=C(OCc1ccc(COc2ccccc2C(F)(F)F)cc1C1=CCNCC1)c1ccc2ccccc2c1` [Compound 313, Naphthalene-2-carboxylic acid 2-(1,2,3,6-tetrahydro-pyridin-4-yl)-4-(2-trifluoromethyl-phenoxymethyl)-benzyl ester], the pKi was greater than 5.52.

As for `O=C(OCc1ccc(COc2ccccc2C(F)(F)F)cc1C1=CCNCC1)c1ccccc1C(F)(F)F` [Compound 314, 2-Trifluoromethyl-benzoic acid 2-(1,2,3,6-tetrahydro-pyridin-4-yl)-4-(2-trifluoromethyl-phenoxymethyl)-benzyl ester], the negative logarithm of the Ki (pKi) is 4.52 to 5.52. The result for `O=C(COCc1ccccc1)OCc1ccc(COc2ccccc2C(F)(F)F)cc1C1=CCNCC1` [Compound 315, Benzyloxy-acetic acid 2-(1,2,3,6-tetrahydro-pyridin-4-yl)-4-(2-trifluoromethyl-phenoxymethyl)-benzyl ester] reads 4.52 to 5.52; that for `O=C(OCc1ccc(COc2ccccc2C(F)(F)F)cc1C1=CCNCC1)c1ccc2c(c1)OCO2` [Compound 316, Benzo[1,3]dioxole-5-carboxylic acid 2-(1,2,3,6-tetrahydro-pyridin-4-yl)-4-(2-trifluoromethyl-phenoxymethyl)-benzyl ester], 4.52 to 5.52. Regarding `COC(=O)c1ccc(C(=O)OCc2ccc(COc3ccccc3C(F)(F)F)cc2C2=CCNCC2)cc1` [Compound 317, Terephthalic acid 1-methyl ester 4-[2-(1,2,3,6-tetrahydro-pyridin-4-yl)-4-(2-trifluoromethyl-phenoxymethyl)-benzyl] ester], the pKi was 4.52 to 5.52.

As to `O=C(OCc1ccc(COc2ccccc2C(F)(F)F)cc1C1=CCNCC1)Oc1cccc2ccccc12` [Compound 318, Carbonic acid naphthalen-1-yl ester 2-(1,2,3,6-tetrahydro-pyridin-4-yl)-4-(2-trifluoromethyl-phenoxymethyl)-benzyl ester], the pKi is greater than 5.52. With `O=C(OCc1ccc(COc2ccccc2C(F)(F)F)cc1C1=CCNCC1)Oc1ccc2ccccc2c1` [Compound 319, Carbonic acid naphthalen-2-yl ester 2-(1,2,3,6-tetrahydro-pyridin-4-yl)-4-(2-trifluoromethyl-phenoxymethyl)-benzyl ester] the figure was greater than 5.52; with `FC(F)(F)c1ccccc1OCc1ccc(COc2cccc3ccccc23)c(C2=CCNCC2)c1` [Compound 320, 4-[2-(Naphthalen-1-yloxymethyl)-5-(2-trifluoromethyl-phenoxymethyl)-phenyl]-1,2,3,6-tetrahydro-pyridine], 4.52 to 5.52.

Consider `FC(F)(F)c1ccccc1OCc1ccc(COc2ccc3ccccc3c2)c(C2=CCNCC2)c1` [Compound 321, 4-[2-(Naphthalen-2-yloxymethyl)-5-(2-trifluoromethyl-phenoxymethyl)-phenyl]-1,2,3,6-tetrahydro-pyridine], for which the pKi is greater than 5.52. The result for `O=C(Nc1cccc2ccccc12)c1ccc(COc2ccccc2C(F)(F)F)cc1C1=CCNCC1` [Compound 322, N-Naphthalen-1-yl-2-(1,2,3,6-tetrahydro-pyridin-4-yl)-4-(2-trifluoromethyl-phenoxymethyl)-benzamide] reads 4.52 to 5.52; that for `FC(F)(F)c1ccc(OCc2ccc(COc3ccccc3C(F)(F)F)cc2C2=CCNCC2)cc1` [Compound 323, 4-[5-(2-Trifluoromethyl-phenoxymethyl)-2-(4-trifluoromethyl-phenoxymethyl)-phenyl]-1,2,3,6-tetrahydro-pyridine], greater than 5.52; that for `FC(F)(F)c1cccc(OCc2ccc(COc3ccccc3C(F)(F)F)cc2C2=CCNCC2)c1` [Compound 324, 4-[5-(2-Trifluoromethyl-phenoxymethyl)-2-(3-trifluoromethyl-phenoxymethyl)-phenyl]-1,2,3,6-tetrahydro-pyridine], greater than 5.52. As for `FC(F)(F)c1ccccc1OCc1ccc(COc2ccc(-c3ccccc3)cc2)c(C2=CCNCC2)c1` [Compound 325, 4-[2-(Biphenyl-4-yloxymethyl)-5-(2-trifluoromethyl-phenoxymethyl)-phenyl]-1,2,3,6-tetrahydro-pyridine], the pKi is greater than 5.52. With `FC(F)(F)c1ccccc1OCc1ccc(COc2ccc(-c3ccccc3)cc2-c2ccccc2)c(C2=CCNCC2)c1` [Compound 326, 4-[2-([1,1′;3′,1′′]Terphenyl-4′-yloxymethyl)-5-(2-trifluoromethyl-phenoxymethyl)-phenyl]-1,2,3,6-tetrahydro-pyridine] the figure was 4.52 to 5.52; with `FC(F)(F)c1ccccc1OCc1ccc(COc2cccc3ncccc23)c(C2=CCNCC2)c1` [Compound 327, 5-[2-(1,2,3,6-Tetrahydro-pyridin-4-yl)-4-(2-trifluoromethyl-phenoxymethyl)-benzyloxy]-quinoline], greater than 5.52; with `COC(=O)c1cccc(OCc2ccc(COc3ccccc3C(F)(F)F)cc2C2=CCNCC2)c1` [Compound 328, 3-[2-(1,2,3,6-Tetrahydro-pyridin-4-yl)-4-(2-trifluoromethyl-phenoxymethyl)-benzyloxy]-benzole acid methyl ester], 4.52 to 5.52.

As to `COC(=O)c1ccc(OCc2ccc(COc3ccccc3C(F)(F)F)cc2C2=CCNCC2)cc1` [Compound 329, 4-[2-(1,2,3,6-Tetrahydro-pyridin-4-yl)-4-(2-trifluoromethyl-phenoxymethyl)-benzyloxy]-benzoic acid methyl ester], the negative logarithm of the Ki (pKi) was 4.52 to 5.52. With `COC(=O)c1cc(OCc2ccc(COc3ccccc3C(F)(F)F)cc2C2=CCNCC2)cc(C(=O)OC)c1` [Compound 330, 5-[2-(1,2,3,6-Tetrahydro-pyridin-4-yl)-4-(2-trifluoromethyl-phenoxymethyl)-benzyloxy]-isophthalic acid dimethyl ester] the figure was greater than 5.52. The result for `O=C1CCCc2c(OCc3ccc(COc4ccccc4C(F)(F)F)cc3C3=CCNCC3)cccc21` [Compound 331, 5-[2-(1,2,3,6-Tetrahydro-pyridin-4-yl)-4-(2-trifluoromethyl-phenoxymethyl)-benzyloxy]-3,4-dihydro-2H-naphthalen-1-one] reads greater than 5.52; that for `CCOC(=O)c1c(C)[nH]c2ccc(OCc3ccc(COc4ccccc4C(F)(F)F)cc3C3=CCNCC3)cc12` [Compound 332, 2-Methyl-5-[2-(1,2,3,6-tetrahydro-pyridin-4-yl)-4-(2-trifluoromethyl-phenoxymethyl)-benzyloxy]-1H-indole-3-carboxylic acid ethyl ester], greater than 5.52. As for `FC(F)(F)c1ccccc1OCc1cc(C2=CCNCC2)c(COc2ccccc2C(F)(F)F)cc1Br` [Compound 333, 4-[4-Bromo-2,5-bis-(2-trifluoromethyl-phenoxymethyl)-phenyl]-1,2,3,6-tetrahydro-pyridine], the pKi was greater than 5.52.

Turning to `FC(F)(F)c1ccccc1OCc1cc(C2=CCNCC2)c(COc2ccccc2C(F)(F)F)cc1C1=CCNCC1` [Compound 334, 4-[4-(1,2,3,6-Tetrahydro-pyridin-4-yl)-2,5-bis-(2-trifluoromethyl-phenoxymethyl)-phenyl]-1,2,3,6-tetrahydro-pyridine], the pKi is 4.52 to 5.52. With `FC(F)(F)c1ccccc1OCc1cc(-c2ccc(Cl)c(Cl)c2)c(COc2ccccc2C(F)(F)F)cc1C1=CCNCC1` [Compound 335, 4-[3′,4′-Dichloro-2,5-bis-(2-trifluoromethyl-phenoxymethyl)-biphenyl-4-yl]-1,2,3,6-tetrahydro-pyridine] the figure was 4.52 to 5.52; with `FC(F)(F)c1ccccc1OCc1cc(-c2ccccc2C(F)(F)F)c(COc2ccccc2C(F)(F)F)cc1C1=CCNCC1` [Compound 336, 4-[2′-Trifluoromethyl-2,5-bis-(2-trifluoromethyl-phenoxymethyl)-biphenyl-4-yl]-1,2,3,6-tetrahydro-pyridine], greater than 5.52; with `FC(F)(F)c1cccc(-c2cc(COc3ccccc3C(F)(F)F)c(C3=CCNCC3)cc2COc2ccccc2C(F)(F)F)c1` [Compound 337, 4-[3′-Trifluoromethyl-2,5-bis-(2-trifluoromethyl-phenoxymethyl)-biphenyl-4-yl]-1,2,3,6-tetrahydro-pyridine], 4.52 to 5.52.
